Like-named read-outs stand apart in the source and are kept apart here.
System: K. pneumoniae NVT1001 strains with ESBL or AmpC β-lactamase plasmids
Experiment: Etest MIC of β-lactams, OmpK35/36 loss, ΔramR and/or extended-spectrum β-lactamase and AmpC β-lactamase (Table 8)
Assay type: cell-based, Klebsiella pneumoniae
Details: for MIC: Klebsiella pneumoniae
Experimental: DNA fragments of the resistance genes along with their flanking regions were amplified from clinical plasmids via PCR with specific primer pairs. The resulting PCR fragments were digested and then cloned into the plasmid pACYC177 or pACYC184. The resulting plasmids were then transformed into K. pneumoniae strain NVT1001 via electroporation. The recombinant bacteria were plated onto LB agar plates containing kanamycin (50 mg/L) or chloramphenicol (50 mg/L), and the presence of the cloned gene was confirmed via PCR and DNA sequencing.
The MICs of antibiotics were determined using the Etest (Biodisk AB, Sweden) according to the manufacturer's instructions. The MICs from the Etest, which fall between standard two-fold dilutions, were rounded up to the next highest two-fold value. The MICs of ceftazidime and cefotaxime against K. pneumoniae NVT1001 harbouring the pACYC177 plasmid with blaOXA-48 were further determined using a broth microdilution test according to the recommendations of the CLSI,^25 and the results were interpreted according to the breakpoints established by the CLSI in 2017.^25 Meanwhile, due to the lack of CLSI breakpoints in 2016 and 2017, the results for cephalothin were interpreted according to the breakpoints established by the CLSI in 2015,^26 and the results for moxifloxacin were interpreted according to the breakpoints established by the EUCAST in 2017.^27

[1] = CMY-2 on pACYC177, WT (NVT1001), read-out: MIC
[2] = CMY-2 on pACYC177, Δ35 (ΔompK35 mutant)
[3] = CMY-2 on pACYC177, Δ35/36 (ΔompK35/36 mutant)
[4] = CMY-2 on pACYC177, Δ36 (ΔompK36 mutant)
[5] = CMY-2 on pACYC177, ΔramR mutant
[6] = CMY-2 on pACYC177, ΔramRΔ35 (ΔramRΔompK35 mutant)
[7] = CMY-2 on pACYC177, ΔramRΔ35/36 (ΔramRΔompK35/36 mutant)
[8] = CMY-2 on pACYC177, ΔramRΔ36 (ΔramRΔompK36 mutant)
[9] = CTX-M-14 on pACYC177, WT (NVT1001), read-out: MIC
[10] = CTX-M-14 on pACYC177, Δ35 (ΔompK35 mutant)
[11] = CTX-M-14 on pACYC177, Δ35/36 (ΔompK35/36 mutant)
[12] = CTX-M-14 on pACYC177, Δ36 (ΔompK36 mutant)
[13] = CTX-M-14 on pACYC177, ΔramR mutant
[14] = CTX-M-14 on pACYC177, ΔramRΔ35 (ΔramRΔompK35 mutant)
[15] = CTX-M-14 on pACYC177, ΔramRΔ35/36 (ΔramRΔompK35/36 mutant)
[16] = CTX-M-14 on pACYC177, ΔramRΔ36 (ΔramRΔompK36 mutant)
[17] = CTX-M-15 on pACYC177, WT (NVT1001), read-out: MIC
[18] = CTX-M-15 on pACYC177, Δ35 (ΔompK35 mutant)
[19] = CTX-M-15 on pACYC177, Δ35/36 (ΔompK35/36 mutant)
[20] = CTX-M-15 on pACYC177, Δ36 (ΔompK36 mutant)
[21] = CTX-M-15 on pACYC177, ΔramR mutant
[22] = CTX-M-15 on pACYC177, ΔramRΔ35 (ΔramRΔompK35 mutant)
[23] = CTX-M-15 on pACYC177, ΔramRΔ35/36 (ΔramRΔompK35/36 mutant)
[24] = CTX-M-15 on pACYC177, ΔramRΔ36 (ΔramRΔompK36 mutant)
[25] = DHA-1-AmpR on pACYC177, WT (NVT1001), read-out: MIC
[26] = DHA-1-AmpR on pACYC177, Δ35 (ΔompK35 mutant)
[27] = DHA-1-AmpR on pACYC177, Δ35/36 (ΔompK35/36 mutant)
[28] = DHA-1-AmpR on pACYC177, Δ36 (ΔompK36 mutant)
[29] = DHA-1-AmpR on pACYC177, ΔramR mutant
[30] = DHA-1-AmpR on pACYC177, ΔramRΔ35 (ΔramRΔompK35 mutant)
[31] = DHA-1-AmpR on pACYC177, ΔramRΔ35/36 (ΔramRΔompK35/36 mutant)
[32] = DHA-1-AmpR on pACYC177, ΔramRΔ36 (ΔramRΔompK36 mutant)
[33] = SHV-12 on pACYC177, WT (NVT1001), read-out: MIC
[34] = SHV-12 on pACYC177, Δ35 (ΔompK35 mutant)
[35] = SHV-12 on pACYC177, Δ35/36 (ΔompK35/36 mutant)
[36] = SHV-12 on pACYC177, Δ36 (ΔompK36 mutant)
[37] = SHV-12 on pACYC177, ΔramR mutant
[38] = SHV-12 on pACYC177, ΔramRΔ35 (ΔramRΔompK35 mutant)
[39] = SHV-12 on pACYC177, ΔramRΔ35/36 (ΔramRΔompK35/36 mutant)
[40] = SHV-12 on pACYC177, ΔramRΔ36 (ΔramRΔompK36 mutant)
[41] = no supplemental plasmid, WT (NVT1001), read-out: MIC
[42] = no supplemental plasmid, Δ35 (ΔompK35 mutant)
[43] = no supplemental plasmid, Δ35/36 (ΔompK35/36 mutant)
[44] = no supplemental plasmid, Δ36 (ΔompK36 mutant)
[45] = no supplemental plasmid, ΔramR mutant
[46] = no supplemental plasmid, ΔramRΔ35 (ΔramRΔompK35 mutant)
[47] = no supplemental plasmid, ΔramRΔ35/36 (ΔramRΔompK35/36 mutant)
[48] = no supplemental plasmid, ΔramRΔ36 (ΔramRΔompK36 mutant)

Compound: CC(=O)OCC1=C(C(=O)O)N2C(=O)[C@@H](NC(=O)Cc3cccs3)[C@H]2SC1 [Cephalothin]
- MIC [1]: > 256 µg/mL
- MIC [2]: > 256 µg/mL
- MIC [3]: > 256 µg/mL
- MIC [4]: > 256 µg/mL
- MIC [5]: > 256 µg/mL
- MIC [6]: > 256 µg/mL
- MIC [7]: > 256 µg/mL
- MIC [8]: > 256 µg/mL
- MIC [9]: > 256 µg/mL
- MIC [10]: > 256 µg/mL
- MIC [11]: > 256 µg/mL
- MIC [12]: > 256 µg/mL
- MIC [13]: > 256 µg/mL
- MIC [14]: > 256 µg/mL
- MIC [15]: > 256 µg/mL
- MIC [16]: > 256 µg/mL
- MIC [17]: > 256 µg/mL
- MIC [18]: > 256 µg/mL
- MIC [19]: > 256 µg/mL
- MIC [20]: > 256 µg/mL
- MIC [21]: > 256 µg/mL
- MIC [22]: > 256 µg/mL
- MIC [23]: > 256 µg/mL
- MIC [24]: > 256 µg/mL
- MIC [25]: > 256 µg/mL
- MIC [26]: > 256 µg/mL
- MIC [27]: > 256 µg/mL
- MIC [28]: > 256 µg/mL
- MIC [29]: > 256 µg/mL
- MIC [30]: > 256 µg/mL
- MIC [31]: > 256 µg/mL
- MIC [32]: > 256 µg/mL
- MIC [33]: > 256 µg/mL
- MIC [34]: > 256 µg/mL
- MIC [35]: > 256 µg/mL
- MIC [36]: > 256 µg/mL
- MIC [37]: > 256 µg/mL
- MIC [38]: > 256 µg/mL
- MIC [39]: > 256 µg/mL
- MIC [40]: > 256 µg/mL
- MIC [41]: 8 µg/mL
- MIC [42]: 8 µg/mL
- MIC [43]: 256 µg/mL
- MIC [44]: 16 µg/mL
- MIC [45]: 64 µg/mL
- MIC [46]: 64 µg/mL
- MIC [47]: > 256 µg/mL
- MIC [48]: > 256 µg/mL

Compound: C[C@@H](O)[C@H]1C(=O)N2C(C(=O)O)=C(S[C@@H]3CN[C@H](CNS(N)(=O)=O)C3)[C@H](C)[C@H]12 [Doripenem]
- MIC [1]: 0.25 µg/mL
- MIC [2]: 0.25 µg/mL
- MIC [3]: 8 µg/mL
- MIC [4]: 1 µg/mL
- MIC [5]: 0.125 µg/mL
- MIC [6]: 0.125 µg/mL
- MIC [7]: 4 µg/mL
- MIC [8]: 4 µg/mL
- MIC [9]: 0.125 µg/mL
- MIC [10]: 0.125 µg/mL
- MIC [11]: 1 µg/mL
- MIC [12]: 0.125 µg/mL
- MIC [13]: 0.06 µg/mL
- MIC [14]: 0.06 µg/mL
- MIC [15]: 0.5 µg/mL
- MIC [16]: 0.5 µg/mL
- MIC [17]: 0.125 µg/mL
- MIC [18]: 0.125 µg/mL
- MIC [19]: 4 µg/mL
- MIC [20]: 0.25 µg/mL
- MIC [21]: 0.125 µg/mL
- MIC [22]: 0.125 µg/mL
- MIC [23]: 2 µg/mL
- MIC [24]: 2 µg/mL
- MIC [25]: 0.125 µg/mL
- MIC [26]: 0.125 µg/mL
- MIC [27]: 8 µg/mL
- MIC [28]: 0.25 µg/mL
- MIC [29]: 0.125 µg/mL
- MIC [30]: 0.125 µg/mL
- MIC [31]: 4 µg/mL
- MIC [32]: 4 µg/mL
- MIC [33]: 0.125 µg/mL
- MIC [34]: 0.125 µg/mL
- MIC [35]: 1 µg/mL
- MIC [36]: 0.125 µg/mL
- MIC [37]: 0.06 µg/mL
- MIC [38]: 0.06 µg/mL
- MIC [39]: 0.5 µg/mL
- MIC [40]: 0.5 µg/mL
- MIC [41]: 0.06 µg/mL
- MIC [42]: 0.06 µg/mL
- MIC [43]: 0.125 µg/mL
- MIC [44]: 0.06 µg/mL
- MIC [45]: 0.03 µg/mL
- MIC [46]: 0.03 µg/mL
- MIC [47]: 0.5 µg/mL
- MIC [48]: 0.25 µg/mL
- effects on the MIC (production of ESBLs tested alone): no significant (≥4-fold) effects
- effects on the MIC (strains with ΔramR, with or without ESBLs or AmpC β-lactamases): no significant (≥4-fold) effects
